# Source: patent US9120749B2, “Quinoline derivatives and MELK inhibitors containing the same” (ONCOTHERAPY SCIENCE, INC., priority 2010, dated 2015)
# Columns and labels:
# [1] = tested on: DU4475 cells; experiment: Cell-based assay: anti-proliferative activity, Cell Counting Kit-8, 72 hours (DU4475); conditions: Homo sapiens, DU-4475, 72 h
# [2] = target: MELK (Homo sapiens, UniProt Q14680); experiment: Kinase assay: MELK activity, phosphorylation of FITC-labeled histone H3 peptide measured by IMAP fluorescence polarization; assay type: biochemical; conditions: read-out: IC50 (μM) (kinase assay)
# Summary of the method: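 FP readout: FITC-histone H3 peptide phosphorylation, read 0.5 h (RT) after stopping with 3x volume of IMAP progressive binding solution. Final DMSO 1%.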
# [3] = tested on: HT-1197 cells; experiment: Cell-based assay: anti-proliferative activity, Cell Counting Kit-8, 72 hours (HT-1197, negative control without MELK expression); conditions: Homo sapiens, HT1197, 72 h, HT1197 cells (negative control, no MELK expression), 72 hours
# Summary of the method: (§1)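 Cellular growth is read by CCK-8 colorimetric kit 72 h after inhibitor addition to seeded cells, and IC50 values are derived from the resulting data; MELK protein levels in these lines are checked beforehand by immunoblotting whole crude lysate.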
# [4] = tested on: T47D cells; experiment: Cell-based assay: anti-proliferative activity, Cell Counting Kit-8, 72 hours (T47D); conditions: Homo sapiens, T47D, 72 h
# Summary of the method: as §1
# [5] = tested on: A549 cells; experiment: Cell-based assay: anti-proliferative activity, Cell Counting Kit-8, 72 hours (A549); conditions: Homo sapiens, A549, 72 h, 72 hours
# Summary of the method: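 A549 cells were seeded in 96-well plates and exposed to candidate inhibitors for 72 hours. Cell growth was then measured with Cell Counting Kit-8, and IC50 values were calculated from the resulting growth data.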
# Chain of MELK (Q14680 whole entry, looked up): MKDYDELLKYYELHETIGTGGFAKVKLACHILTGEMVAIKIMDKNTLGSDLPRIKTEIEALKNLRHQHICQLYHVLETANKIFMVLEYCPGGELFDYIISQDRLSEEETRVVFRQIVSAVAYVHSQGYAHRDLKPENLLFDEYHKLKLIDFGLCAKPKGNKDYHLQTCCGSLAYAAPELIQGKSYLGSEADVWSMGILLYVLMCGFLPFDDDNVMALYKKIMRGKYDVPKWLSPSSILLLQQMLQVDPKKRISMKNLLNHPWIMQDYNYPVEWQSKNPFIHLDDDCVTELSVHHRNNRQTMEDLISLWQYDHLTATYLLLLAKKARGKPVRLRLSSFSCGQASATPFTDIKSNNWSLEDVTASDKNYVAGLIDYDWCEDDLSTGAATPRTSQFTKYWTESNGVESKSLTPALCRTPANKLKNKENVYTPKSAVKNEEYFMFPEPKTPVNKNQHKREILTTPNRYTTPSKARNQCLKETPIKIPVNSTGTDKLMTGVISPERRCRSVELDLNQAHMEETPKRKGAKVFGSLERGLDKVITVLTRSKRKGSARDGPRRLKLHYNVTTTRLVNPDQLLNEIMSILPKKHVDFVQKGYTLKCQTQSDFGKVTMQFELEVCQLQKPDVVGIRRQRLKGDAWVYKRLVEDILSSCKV
SMILES,IC50 [1],IC50 [2],IC50 [3],IC50 [4],IC50 [5]
"CN(C)CCc1cccc(Nc2c(C(=O)C3CC3)cnc3ccc(-c4cc(F)c(O)c(Cl)c4)cc23)c1 [Example 693, {6-(3-Chloro-5-fluoro-4-hydroxyphenyl)-4-[3-(2-(dimethylamino)ethyl)phenylamino]quinolin-3-yl}(cyclopropyl)methanone]",0.085 µM,0.0083 µM,10 µM,0.37 µM,0.09 µM
"NC1CCN(c2cc(Nc3c(C(=O)C4CC4)cnc4ccc(-c5cc(Cl)c(O)c(Cl)c5)cc34)ccn2)CC1 [Example 735, (4-(2-(4-aminopiperidin-1-yl)pyridin-4-ylamino)-6-(3,5-dichloro-4-hydroxyphenyl)quinolin-3-yl)(cyclopropyl)methanone]",0.5 µM,0.0041 µM,20 µM,1 µM,3.5 µM
"COc1cc(-c2ccc3ncc(C(=O)C4CC4)c(Nc4ccc(CN5CCCC5)nc4)c3c2)cc(Cl)c1O [Example 659, (6-(3-chloro-4-hydroxy-5-methoxyphenyl)-4-(6-(pyrrolidin-1-ylmethyl)pyridin-3-ylamino)quinolin-3-yl)(cyclopropyl)methanone]",0.28 µM,0.013 µM,7.3 µM,0.6 µM,0.32 µM
"O=C(c1cnc2ccc(-c3cc(Cl)c(O)c(Cl)c3)cc2c1NC1CCC(N2CC[C@@H](F)C2)CC1)C1CC1 (stereo partly drawn) [Example 643, (R)-cyclopropyl(6-(3,5-dichloro-4-hydroxyphenyl)-4-(4-(3-fluoropyrrolidin-1-yl)cyclohexylamino)quinolin-3-yl)methanone]",0.14 µM,0.004 µM,2.4 µM,0.37 µM,0.34 µM
"COc1cc(-c2ccc3ncc(C(C)=O)c(Nc4ccc(CCN(C)C)cc4)c3c2)cc(Cl)c1O [Example 743, 1-(6-(3-chloro-4-hydroxy-5-methoxyphenyl)-4-(4-(2-(dimethylamino)ethyl)phenylamino)quinolin-3-yl)ethanone]",0.36 µM,0.0042 µM,4.8 µM,0.66 µM,0.53 µM
"COc1cc(-c2ccc3ncc(C(=O)C4CC4)c(Nc4ccc(N5CCC[C@H](N)C5)nc4)c3c2)cc(Cl)c1O [Example 660, (S)-(4-(6-(3-aminopiperidin-1-yl)pyridin-3-ylamino)-6-(3-chloro-4-hydroxy-5-methoxyphenyl)quinolin-3-yl)(cyclopropyl)methanone]",0.046 µM,0.0024 µM,2.9 µM,0.1 µM,0.22 µM
"COc1cc(-c2ccc3ncc(C(=O)C4CC4)c(Nc4ccc(CN5CCC(N(C)C)C5)cc4)c3c2)cc(Cl)c1O (centres unmarked) [Example 697, (6-(3-chloro-4-hydroxy-5-methoxyphenyl)-4-(4-((3-(dimethylamino)pyrrolidin-1-yl)methyl)phenylamino)quinolin-3-yl)(cyclopropyl)methanone]",0.64 µM,0.0084 µM,1.8 µM,0.81 µM,0.44 µM
CC(=O)c1cnc2ccc(-c3cc(F)c(O)c(F)c3)cc2c1N[C@H]1CC[C@H](CN(C)C)CC1 [Example 721],0.22 µM,0.035 µM,3.4 µM,0.15 µM,0.32 µM
"CC(=O)c1cnc2ccc(-c3cc(Cl)c(O)c(Cl)c3)cc2c1Nc1cccc(CCN(C)C)c1 [Example 729, 1-{6-(3,5-Dichloro-4-hydroxyphenyl)-4-[3-(2-(dimethylamino)ethyl)phenylamino]quinolin-3-yl}ethanone]",0.1 µM,0.0022 µM,10 µM,0.52 µM,0.2 µM
O=C(c1cnc2ccc(-c3cc(F)c(O)c(Cl)c3)cc2c1N[C@H]1CC[C@H](CNCCF)CC1)C1CC1 [Example 701],0.38 µM,0.003 µM,0.98 µM,0.29 µM,0.41 µM
